Measured values: ChEMBL document CHEMBL1133808, “The discovery of sulfonylated dipeptides as potent VLA-4 antagonists” (Bioorg Med Chem Lett, 2001)

Experiments:
[1] = Oral bioavailability in rat (Sprague-Dawley) (dose 2 mg/kg); type: ADME, organism-based; conditions: in vivo
[2] = Oral bioavailability in rat (Sprague-Dawley) (dose 1 mg/kg i.v.); type: ADME, organism-based; conditions: in vivo
Integrin alpha-4/beta-1 [3] = molecular target: T1, Integrin alpha-4/beta-1 (Homo sapiens, UniProt P05556+P13612); test: Antagonistic activity against VLA-4 integrin of human jurkat cells using [125I]VCAM-Ig as radioligand; type: functional, cell-based
T1 sequence (P05556 whole entry, one chain of several): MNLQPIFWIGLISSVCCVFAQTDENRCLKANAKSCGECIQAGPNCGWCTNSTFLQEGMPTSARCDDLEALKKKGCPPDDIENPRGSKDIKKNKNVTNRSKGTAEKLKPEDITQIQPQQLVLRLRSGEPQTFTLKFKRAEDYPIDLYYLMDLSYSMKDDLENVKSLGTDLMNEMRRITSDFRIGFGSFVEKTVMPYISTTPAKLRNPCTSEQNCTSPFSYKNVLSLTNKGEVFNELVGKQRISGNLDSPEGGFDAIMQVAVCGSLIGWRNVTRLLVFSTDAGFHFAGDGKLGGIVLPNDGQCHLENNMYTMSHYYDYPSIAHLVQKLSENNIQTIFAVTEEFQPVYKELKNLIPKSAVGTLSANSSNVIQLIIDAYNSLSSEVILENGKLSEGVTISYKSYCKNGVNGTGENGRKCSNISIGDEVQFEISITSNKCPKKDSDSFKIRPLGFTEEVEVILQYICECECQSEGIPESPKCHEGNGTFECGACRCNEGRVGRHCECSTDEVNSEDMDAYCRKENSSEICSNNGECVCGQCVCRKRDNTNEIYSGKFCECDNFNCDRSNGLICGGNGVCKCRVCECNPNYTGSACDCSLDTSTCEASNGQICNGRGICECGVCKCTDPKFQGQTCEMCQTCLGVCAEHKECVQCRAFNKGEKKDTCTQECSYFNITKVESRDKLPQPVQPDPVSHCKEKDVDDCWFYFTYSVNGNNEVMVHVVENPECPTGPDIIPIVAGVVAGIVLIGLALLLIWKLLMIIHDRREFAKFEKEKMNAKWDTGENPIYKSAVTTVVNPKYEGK

[4] = Plasma clearance in Sprague-Dawley rats; type: ADME, organism-based; conditions: rat, read-out: Clp
Integrin alpha-4/beta-1 [5] = molecular target: T1, Integrin alpha-4/beta-1; test: Inhibition of [125I]-VCAM-Ig binding to VLA-4 integrin of human Jurkat cells; type: cell-based
[6] = Oral bioavailability in Sprague-Dawley rats; type: ADME, organism-based; conditions: rat, in vivo
[7] = Compound was tested for protein binding in human plasma; type: ADME, cell-free; conditions: read-out: Protein binding (converted)
[8] = Plasma half-life in Sprague-Dawley rats; type: ADME, organism-based; conditions: rat
Integrin alpha-4/beta-7 [9] = molecular target: T2, Integrin alpha-4/beta-7 (Homo sapiens, UniProt P13612+P26010); test: Inhibition of [125I]VCAM-Ig binding to alpha4-beta7 integrin of human RPMI-8866 cells; type: cell-based
T2 sequence (P13612 whole entry): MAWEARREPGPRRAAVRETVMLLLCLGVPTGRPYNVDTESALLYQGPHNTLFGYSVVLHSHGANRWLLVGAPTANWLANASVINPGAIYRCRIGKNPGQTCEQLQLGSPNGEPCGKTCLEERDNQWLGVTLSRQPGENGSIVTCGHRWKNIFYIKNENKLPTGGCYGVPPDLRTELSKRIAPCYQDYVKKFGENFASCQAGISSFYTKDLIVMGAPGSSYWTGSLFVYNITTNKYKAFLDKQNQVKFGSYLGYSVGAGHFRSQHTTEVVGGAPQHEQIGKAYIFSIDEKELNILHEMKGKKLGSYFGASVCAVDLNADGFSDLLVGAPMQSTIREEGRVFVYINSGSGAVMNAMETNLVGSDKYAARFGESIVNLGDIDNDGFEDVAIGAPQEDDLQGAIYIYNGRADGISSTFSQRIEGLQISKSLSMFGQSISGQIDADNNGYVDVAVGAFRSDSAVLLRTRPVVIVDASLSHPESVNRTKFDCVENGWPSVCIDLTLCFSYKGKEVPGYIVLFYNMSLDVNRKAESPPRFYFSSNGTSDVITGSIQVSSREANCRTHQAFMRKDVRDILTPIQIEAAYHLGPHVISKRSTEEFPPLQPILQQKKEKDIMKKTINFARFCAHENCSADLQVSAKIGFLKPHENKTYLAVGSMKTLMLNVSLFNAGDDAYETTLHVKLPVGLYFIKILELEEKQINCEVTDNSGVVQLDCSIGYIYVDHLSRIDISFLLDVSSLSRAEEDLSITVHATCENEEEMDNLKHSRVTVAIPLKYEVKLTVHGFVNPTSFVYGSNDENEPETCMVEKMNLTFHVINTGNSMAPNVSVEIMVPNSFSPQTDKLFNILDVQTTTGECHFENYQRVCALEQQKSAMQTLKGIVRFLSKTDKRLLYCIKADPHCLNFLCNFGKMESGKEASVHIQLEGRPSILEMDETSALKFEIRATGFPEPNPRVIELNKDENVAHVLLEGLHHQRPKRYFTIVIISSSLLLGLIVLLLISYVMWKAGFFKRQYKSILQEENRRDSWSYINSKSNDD
T2 sequence (P26010 whole entry): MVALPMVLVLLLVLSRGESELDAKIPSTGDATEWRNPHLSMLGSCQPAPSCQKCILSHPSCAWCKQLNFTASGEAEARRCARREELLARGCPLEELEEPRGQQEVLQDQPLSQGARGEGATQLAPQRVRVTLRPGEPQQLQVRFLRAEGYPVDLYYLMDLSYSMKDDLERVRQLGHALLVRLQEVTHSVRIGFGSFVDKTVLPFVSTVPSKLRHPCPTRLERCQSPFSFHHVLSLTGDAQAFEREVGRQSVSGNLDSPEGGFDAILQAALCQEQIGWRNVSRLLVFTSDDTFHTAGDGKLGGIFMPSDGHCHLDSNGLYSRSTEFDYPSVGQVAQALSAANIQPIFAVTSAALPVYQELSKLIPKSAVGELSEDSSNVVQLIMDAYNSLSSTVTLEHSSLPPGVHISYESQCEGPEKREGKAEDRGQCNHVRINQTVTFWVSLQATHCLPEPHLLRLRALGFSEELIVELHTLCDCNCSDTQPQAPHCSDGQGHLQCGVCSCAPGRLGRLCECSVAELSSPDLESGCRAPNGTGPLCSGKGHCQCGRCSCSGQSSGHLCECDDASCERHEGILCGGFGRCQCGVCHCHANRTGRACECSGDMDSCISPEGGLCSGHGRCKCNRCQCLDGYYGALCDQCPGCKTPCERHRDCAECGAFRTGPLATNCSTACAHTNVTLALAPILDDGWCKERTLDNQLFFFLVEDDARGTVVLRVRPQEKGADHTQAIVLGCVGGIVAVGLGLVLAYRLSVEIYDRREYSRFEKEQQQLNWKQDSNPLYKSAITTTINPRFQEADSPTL

Integrin alpha-4/beta-7 [10] = molecular target: T2, Integrin alpha-4/beta-7; test: Inhibition of [125I]MAdCAM-Ig binding to alpha4-beta7 integrin of human RPMI-8866 cells; type: cell-based
Integrin alpha-4/beta-1 [11] = molecular target: T1, Integrin alpha-4/beta-1; test: Inhibition of [125I]VCAM-Ig binding to VLA-4 integrin of human Jurkat cells; type: cell-based
[12] = Plasma clearance in Beagle dogs; type: ADME, organism-based, Canis lupus familiaris; conditions: dog, read-out: Clp
[13] = Plasma half-life in rhesus monkey; conditions: cercopithecidae
[14] = Plasma clearance in rhesus monkey; type: ADME, organism-based; conditions: cercopithecidae, read-out: Clp
[15] = Plasma half-life in Beagle dogs; type: ADME, organism-based, Canis lupus familiaris; conditions: dog
[16] = Compound was tested for protein binding in rat plasma; type: ADME, organism-based; conditions: read-out: Protein binding (converted)

| SMILES | IC50 (Integrin alpha-4/beta-1 [3]) | clearance [4] | half-life [8] | IC50 (Integrin alpha-4/beta-7 [10]) | also measured |
| --- | --- | --- | --- | --- | --- |
| COc1ccccc1-c1ccc(C[C@H](NC(=O)[C@@H]2CCCN2S(=O)(=O)c2cc(Cl)cc(Cl)c2)C(=O)O)cc1 | 0.64 nM | 39 mL/min/kg | – | – | bioavailability [1]: 3%; bioavailability [2]: 3% |
| COc1ccc(S(=O)(=O)N2Cc3ccccc3C[C@H]2C(=O)N[C@@H](CCC(=O)O)C(=O)O)cc1OC | – | – | – | – | IC50 (Integrin alpha-4/beta-1 [5]): 257 nM |
| CCCC[C@H](NC(=O)[C@@H]1Cc2ccccc2CN1S(=O)(=O)c1ccc(OC)c(OC)c1)C(=O)O | – | – | – | – | IC50 (Integrin alpha-4/beta-1 [11]): 58 nM |
| C[C@@]1(C(=O)N[C@@H](Cc2ccc(-c3ccccc3C#N)cc2)C(=O)O)CCCN1S(=O)(=O)c1cc(Cl)cc(Cl)c1 | 0.92 nM | – | 1.5 h | – | clearance [12]: 25 mL/min/kg; half-life [13]: 5.3 h; fraction unbound [7]: 0.005; IC50 (Integrin alpha-4/beta-7 [9]): 345 nM; clearance [14]: 12 mL/min/kg; half-life [15]: 3.4 h; fraction unbound [16]: 0.005 |

Now from value to compound, other results behind:

| IC50 (Integrin alpha-4/beta-1 [3]) | clearance [4] | half-life [8] | IC50 (Integrin alpha-4/beta-7 [10]) | SMILES | also measured |
| --- | --- | --- | --- | --- | --- |
| 0.46 nM | 21 mL/min/kg | – | – | N#Cc1ccccc1-c1ccc(C[C@H](NC(=O)[C@@H]2CCCN2S(=O)(=O)c2cc(Cl)cc(Cl)c2)C(=O)O)cc1 | bioavailability [1]: 4%; bioavailability [2]: 4% |
| 0.5 nM | 49 mL/min/kg | 0.6 h | – | O=C(O)[C@H](Cc1ccc2ccccc2c1)NC(=O)[C@@H]1CCCN1S(=O)(=O)c1cc(Cl)cc(Cl)c1 | bioavailability [6]: 15%; fraction unbound [7]: 0.004 |
| 0.08 nM | > 100 mL/min/kg | 2.2 h | 11.5 nM | COc1cccc(OC)c1-c1ccc(C[C@H](NC(=O)[C@]2(C)CCCN2S(=O)(=O)c2cc(Cl)cc(Cl)c2)C(=O)O)cc1 | IC50 (Integrin alpha-4/beta-7 [9]): 2.98 nM |
| 0.15 nM | 17 mL/min/kg | 1 h | 97.1 nM | C[C@@]1(C(=O)N[C@@H](Cc2ccc(-c3ccccn3)cc2)C(=O)O)CCCN1S(=O)(=O)c1cc(Cl)cc(Cl)c1 | – |
| 0.11 nM | 71 mL/min/kg | 0.5 h | 52.5 nM | COc1cccnc1-c1ccc(C[C@H](NC(=O)[C@]2(C)CCCN2S(=O)(=O)c2cc(Cl)cc(Cl)c2)C(=O)O)cc1 | – |
